Values of other authors as cited in patent publication US20070196413A1, “Surfactant enhanced quick release pesticide granules” (priority 2003, published 2007).
Like-named read-outs stand apart in the source and are kept apart here.

In the case of `CNC(=O)CSP(=S)(OC)OC` [Cygon, dimethoate], the “Time to lose 50 percent of pest control power” value (mixed in water of pH 9) is given as 48 min and the “Time to lose 50 percent of pest control power” value (pH of 6) is given as 720 min.
